Patent publication US7902191B2, “Histamine H3 receptor antagonists, preparation and therapeutic uses” (Eli Lilly and Company, priority 2004, dated 2011)

What was measured:
[1] = biological target: T1, H3R (human histamine 3 receptor) (Homo sapiens, UniProt Q9Y5N1); assay: competitive inhibition SPA binding assay, H3R, (3H)-n-alpha-methylhistamine; conditions: selectivity panel
T1 construct: expressed in transfected cells
Source text: The inventive compounds can readily be evaluated by using a competitive inhibition Scintillation Proximity Assay (SPA) based on a H3R binding assay using [3H] α methylhistamine as ligand. Stable cell lines, including but not limited to HEK can be transfected with cDNA coding for H3R to prepare membranes used for the binding assay. The technique is illustrated below (Preparation of Histamine Receptor Subtype Membranes) for the histamine receptor subtypes.
(§1) cDNA for the human histamine 3 receptor was cloned and expressed as described in (A. Preparation H1R membranes), above. Transfected cells were selected using G418 ([…]), grown, and tested for histamine binding by the SPA described above. For total binding, cells were assayed in a SPA reaction described above containing 50 mM Tris-HCL (assay buffer), pH 7.6, 1 mg wheat germ agglutinin SPA beads (Amersham Pharmacia Biotech, #RPNQ0001), and 1 nM (3H)-n-alpha-methylhistamine (NEN, NET1027) (total volume per well=200 μl). Thioperimide was added to determine non-specific binding. Several clones were selected as positive for binding, and a single clone (H3R8) was used to prepare membranes for binding studies described above. Five micrograms of protein was used per well in the SPA receptor-binding assay.
To investigate the selectivity of the antagonists for the histamine receptors, a competitive binding assay described above was performed. […]

[2] = biological target: T2, H4R (human GPRv53 receptor) (Homo sapiens, UniProt Q9H3N8); assay: competitive binding assay, GPRv53 (H4R), (3H) Histamine
T2 construct: expressed in transfected cells; host or cells: HEK293 GPRv53 50 cells (whole-cell homogenate/lysate)
Experimental: cDNA for the human GPRv53 receptor was cloned and expressed as described in (A. Preparation H1R membranes), above. Transfected cells were selected, tested for histamine binding, and selected. HEK293 GPRv53 50 cells were grown to confluency in DMEM/F12 (Gibco) supplemented with 5% FBS and 500 ug/ml G418 and washed with Delbecco's PBS (Gibco) and harvested by scraping. Whole cells were homogenized with a Polytron tissuemizer in binding buffer, 50 mM Tris pH 7.5. Cell lysates, 50 ug, were incubated in 96 well dishes with 3 nM (3H) Histamine and compounds in binding buffer for 2 hours at room temperature. Lysates were filtered through glass fiber filters (Perkin Elmer) with a Tomtec cell harvester. Filters were counted with melt-on scintillator sheets (Perkin Elmer) in a Wallac Trilux 1450 Microbeta Scintillation counter for 5 minutes.
(§2) To investigate the selectivity of the antagonists for the histamine receptors, a competitive binding assay described above was performed. […] Until the present invention, most known H3R antagonists also bound H4R.

[3] = biological target: T3, H1R (human histamine 1 receptor) (Homo sapiens, UniProt P35367); assay: competitive SPA binding assay, H1R, 3H-pyrilamine; conditions: selectivity panel
T3 construct: expressed in transfected cells
T3 sequence (P35367 whole entry): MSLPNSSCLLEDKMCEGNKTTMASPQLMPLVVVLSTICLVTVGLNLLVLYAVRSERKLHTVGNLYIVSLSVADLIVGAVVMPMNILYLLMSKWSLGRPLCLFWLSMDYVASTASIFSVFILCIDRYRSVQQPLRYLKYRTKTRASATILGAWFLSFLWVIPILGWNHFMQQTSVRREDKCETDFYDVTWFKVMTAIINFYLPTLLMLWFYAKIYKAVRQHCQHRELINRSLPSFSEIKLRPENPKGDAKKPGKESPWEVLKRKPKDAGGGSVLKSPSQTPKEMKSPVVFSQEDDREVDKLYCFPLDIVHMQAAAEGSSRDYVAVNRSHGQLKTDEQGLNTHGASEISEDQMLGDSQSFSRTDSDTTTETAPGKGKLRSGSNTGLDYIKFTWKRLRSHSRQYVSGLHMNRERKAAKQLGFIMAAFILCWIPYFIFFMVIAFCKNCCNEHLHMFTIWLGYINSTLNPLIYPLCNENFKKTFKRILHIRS
Experimental: cDNA for the human histamine 1 receptor (H1R) was cloned into a mammalian expression vector containing the CMV promoter (pcDNA3.1(+), Invitogen) and transfected into HEK293 cells using the FuGENE Tranfection Reagent (Roche Diagnostics Corporation). Transfected cells were selected using G418 (500 μ/ml). Colonies that survived selection were grown and tested for histamine binding to cells grown in 96-well dishes using a scintillation proximity assay (SPA) based radioligand binding assay. Briefly, cells, representing individual selected clones, were grown as confluent monolayers in 96-well dishes (Costar Clear Bottom Plates, #3632) by seeding wells with 25,000 cells and growing for 48 hours (37° C., 5% CO2). Growth media was removed and wells were rinsed two times with PBS (minus Ca^2+ or Mg^2+). For total binding, cells were assayed in a SPA reaction containing 50 mM Tris-HCL (assay buffer), pH 7.6, 1 mg wheat germ agglutinin SPA beads (Amersham Pharmacia Biotech, #RPNQ0001), and 0.8 nM ^3H-pyrilamine (Net-594, NEN) (total volume per well ˜200 μl). Astemizole (10 μM, Sigma #A6424) was added to appropriate wells to determine non-specific binding. Plates were covered with FasCal and incubated at room temperature for 120 minutes. […] Plates were counted in a Wallac Trilux 1450 Microbeta scintillation counter. […]

[4] = biological target: T4, H2 (human histamine 2 receptor) (Homo sapiens, UniProt P25021); assay: competitive SPA binding assay, H2R, 3H-tiotidine; conditions: selectivity panel
T4 construct: expressed in transfected cells
T4 sequence (P25021 whole entry): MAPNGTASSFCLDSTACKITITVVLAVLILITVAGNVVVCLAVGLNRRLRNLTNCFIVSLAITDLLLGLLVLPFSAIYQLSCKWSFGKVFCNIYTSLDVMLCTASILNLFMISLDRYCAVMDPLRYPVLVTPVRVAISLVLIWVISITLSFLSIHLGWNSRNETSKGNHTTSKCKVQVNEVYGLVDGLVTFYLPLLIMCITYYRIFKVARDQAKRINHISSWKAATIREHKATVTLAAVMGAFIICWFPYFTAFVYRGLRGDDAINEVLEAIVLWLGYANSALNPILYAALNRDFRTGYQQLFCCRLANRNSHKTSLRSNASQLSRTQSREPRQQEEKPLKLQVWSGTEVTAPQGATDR
Experimental: cDNA for the human histamine 2 receptor was cloned, expressed and transfected into HEK 293 cells as described above. Histamine binding to cells was assayed by SPA described above. For total binding, cells were assayed in a SPA reaction containing 50 mM Tris-HCl (assay buffer), pH 7.6, 1 mg wheat germ agglutinin SPA beads (Amersham Pharmacia Biotech, #RPNQ0001), and 6.2 nM ^3H-tiotidine (Net-688, NEN) (total volume per well=200 μl). Cimetidine (10 μM, Sigma #C4522) was added to appropriate wells to determine non-specific binding.
Several clones were selected as positive for binding, and a single clone (H2R10) was used to prepare membranes for binding studies. Five micrograms of protein was used per well in the SPA receptor-binding assay.
as §2

[5] = biological target: T5, H3R membranes (H3R8-expressing HEK293 cell line) (Homo sapiens, UniProt Q9Y5N1); assay: [35S] GTP γ[S] binding assay, antagonist activity in the presence of agonist R(−)alpha methylhistamine; format: biochemical; conditions: results given below the [35S]GTPγS assay
T5 construct: expressed in transfected cells
T5 sequence (Q9Y5N1 whole entry): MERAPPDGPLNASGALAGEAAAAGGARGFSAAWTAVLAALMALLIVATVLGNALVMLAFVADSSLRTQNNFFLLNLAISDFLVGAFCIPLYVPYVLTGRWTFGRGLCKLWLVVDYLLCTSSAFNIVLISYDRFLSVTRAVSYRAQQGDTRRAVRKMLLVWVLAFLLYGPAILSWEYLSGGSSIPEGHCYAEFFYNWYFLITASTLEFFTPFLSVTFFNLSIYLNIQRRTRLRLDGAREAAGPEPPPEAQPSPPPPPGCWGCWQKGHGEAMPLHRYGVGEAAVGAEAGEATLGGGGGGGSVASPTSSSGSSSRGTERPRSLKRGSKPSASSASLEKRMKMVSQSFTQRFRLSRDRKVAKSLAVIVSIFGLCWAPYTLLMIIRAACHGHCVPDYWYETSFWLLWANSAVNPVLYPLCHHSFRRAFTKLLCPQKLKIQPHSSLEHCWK
Experimental: Membranes isolated as described in (Preparation of Histamine Receptor Subtype Membranes) were used in a [35S]GTPχS functional assay. Binding of [35S]GTPχS to membranes indicates agonist activity. Compounds of the invention of Formula I or II or III were tested for their ability to inhibit binding in the presence of agonists. Alternately, the same transfected cell lines were used for a cAMP assay wherein H3R agonists inhibited forskolin-activated synthesis of cAMP. Compounds of Formula I or II or III were tested for their ability to permit forskolin-stimulated cAMP synthesis in the presence of agonist.
as §1, with “Several clones were selected as positive for binding, and a single clone (H3R8) was used to prepare membranes for binding studies described above. Five micrograms of protein was used per well in the SPA receptor-binding assay.” left out
Antagonist activity of selected compounds was tested for inhibition of [35S] […] Plates were counted in Wallac Trilux 1450 Microbeta scintillation counter for 1 minute. […]

T1 sequence (Q9Y5N1 whole entry): as above

Ki [5]	SMILES	Ki [1]	Ki ([2]; selectivity panel)	inhibition of binding to H4R compared to H3R ([2]; statement in words)	Ki [3]	Ki [4]
–	O=C(c1ccc2c(c1)CCCC2)N1CCC[C@H]1CN1CCCC1 [Example 15, (S)-(2-Pyrrolidin-1-ylmethyl-pyrrolidin-1-yl)-(5,6,7,8-tetrahydro-naphthalen-2-yl)-methanone]	1.8 nM	≥ 20000 nM	did not inhibit binding H4R	≥ 20000 nM	≥ 17800 nM
1.5 nM	O=C(c1ccc2c(c1)CCC(N1CCCC1)C2)N1CCC[C@H]1CN1CCCC1 (mixture of isomers) [Example 3, (2-Pyrrolidin-1-ylmethyl-pyrrolidin-1-yl)-(6-pyrrolidin-1-yl-5,6,7,8-tetrahydro-naphthalen-2-yl)-methanone]	–	–	–	–	–
7.8 nM	O=C(c1ccc2c(c1)CCC(N1CCOCC1)C2)N1CCC[C@H]1CN1CCCC1 (mixture of isomers) [Example 6, (6-Morpholin-4-yl-5,6,7,8-tetrahydro-naphthalen-2-yl)-(2-pyrrolidin-1-ylmethyl-pyrrolidin-1-yl)-methanone]	–	–	–	–	–
